Measurements from ChEMBL document CHEMBL1201862, “PubChem BioAssay data set” (2004).
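Dose response: 5 concentrations. Exposure: 48 h. Format: 96-well plates. Endpoint: linear interpolation; highest concentration if not reached. Abbreviation: GI50, concentration required for 50% inhibition of growth.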 Calls of active or inactive are those of the source. No stated cut-off is given here; in the data, active = GI50 up to about 1.1 µM and inactive = higher.

Legend:
Test in all cases: NCI anticancer screen, dose series, 48 h
M14 = tested on: M14
NCI-H460 = tested on: NCI-H460
SK-OV-3 = tested on: SK-OV-3
OVCAR-4 = tested on: OVCAR-4
OVCAR-3 = tested on: OVCAR-3
DMS-114 = tested on: DMS-114
SNB-19 = tested on: SNB-19
NCI-H226 = tested on: NCI-H226
SW-620 = tested on: SW-620
HL-60 = tested on: HL-60
SNB-78 = tested on: SNB-78
SK-MEL-28 = tested on: SK-MEL-28
M19-MEL = tested on: M19-MEL
U-251 = tested on: U-251
786-0 = tested on: 786-0
HCC 2998 = tested on: HCC 2998
XF498 = tested on: XF498
Malme-3M = tested on: Malme-3M
UACC-62 = tested on: UACC-62
DLD-1 = tested on: DLD-1
SNB-75 = tested on: SNB-75
HT-29 = tested on: HT-29
EKVX = tested on: EKVX
A498 = tested on: A498
K562 = tested on: K562
SK-MEL-5 = tested on: SK-MEL-5
HCT-116 = tested on: HCT-116
MOLT-4 = tested on: MOLT-4
SF-295 = tested on: SF-295
SF-268 = tested on: SF-268
NCI-H522 = tested on: NCI-H522
ACHN = tested on: ACHN
NCI-H23 = tested on: NCI-H23
CAKI-1 = tested on: CAKI-1
RPMI-8226 = tested on: RPMI-8226
CCRF-CEM = tested on: CCRF-CEM
OVCAR-5 = tested on: OVCAR-5
TK-10 = tested on: TK-10
A549 = tested on: A549
OVCAR-8 = tested on: OVCAR-8
COLO 205 = tested on: COLO 205
HOP-62 = tested on: HOP-62
SK-MEL-2 = tested on: SK-MEL-2
UO-31 = tested on: UO-31
LXFL 529 = tested on: LXFL 529
SN12C = tested on: SN12C
UACC-257 = tested on: UACC-257
SR = tested on: SR
KM-20L2 = tested on: KM-20L2
SF-539 = tested on: SF-539
HOP-92 = tested on: HOP-92
MCF7 = tested on: MCF7
DMS-273 = tested on: DMS-273
NCI/ADR-RES = tested on: NCI/ADR-RES
RXF 393 = tested on: RXF 393
IGROV-1 = tested on: IGROV-1
HCT-15 = tested on: HCT-15
LOX IMVI = tested on: LOX IMVI
KM12 = tested on: KM12

Structure (SMILES): C#Cc1cccc(N2C(=O)CC(=P(c3ccccc3)(c3ccccc3)c3ccccc3)C2=O)c1
- GI50 (M14): 47.6 µM (inactive)
- GI50 (NCI-H460): 97.5 µM (inactive)
- GI50 (SK-OV-3): > 100 µM (inactive)
- GI50 (OVCAR-4): 69.2 µM (inactive)
- GI50 (OVCAR-3): 31.5 µM (inactive)
- GI50 (DMS-114): 19.9 µM (inactive)
- GI50 (SNB-19): 69 µM (inactive)
- GI50 (NCI-H226): 58.2 µM (inactive)
- GI50 (SW-620): 54.6 µM (inactive)
- GI50 (HL-60): 15.1 µM (inactive)
- GI50 (SNB-78): > 100 µM (inactive)
- GI50 (SK-MEL-28): 81.3 µM (inactive)
- GI50 (M19-MEL): 42.9 µM (inactive)
- GI50 (U-251): 71.8 µM (inactive)
- GI50 (786-0): 24.5 µM (inactive)
- GI50 (HCC 2998): 70.8 µM (inactive)
- GI50 (XF498): 0.405 µM (active)
- GI50 (Malme-3M): 80 µM (inactive)
- GI50 (UACC-62): 29.3 µM (inactive)
- GI50 (DLD-1): > 100 µM (inactive)
- GI50 (SNB-75): 91.8 µM (inactive)
- GI50 (HT-29): 39.6 µM (inactive)
- GI50 (EKVX): 44.2 µM (inactive)
- GI50 (A498): > 100 µM (inactive)
- GI50 (K562): 35.4 µM (inactive)
- GI50 (SK-MEL-5): 25.6 µM (inactive)
- GI50 (HCT-116): 32.6 µM (inactive)
- GI50 (MOLT-4): 51.8 µM (inactive)
- GI50 (SF-295): > 100 µM (inactive)
- GI50 (SF-268): 62.1 µM (inactive)
- GI50 (NCI-H522): 25 µM (inactive)
- GI50 (ACHN): > 100 µM (inactive)
- GI50 (NCI-H23): 40.7 µM (inactive)
- GI50 (CAKI-1): > 100 µM (inactive)
- GI50 (RPMI-8226): 6.4 µM (inactive)
- GI50 (CCRF-CEM): 50.1 µM (inactive)
- GI50 (OVCAR-5): 57 µM (inactive)
- GI50 (TK-10): > 100 µM (inactive)
- GI50 (A549): 70 µM (inactive)
- GI50 (OVCAR-8): > 100 µM (inactive)
- GI50 (COLO 205): 44.9 µM (inactive)
- GI50 (HOP-62): 67.1 µM (inactive)
- GI50 (SK-MEL-2): 84.7 µM (inactive)
- GI50 (UO-31): > 100 µM (inactive)
- GI50 (LXFL 529): 11.8 µM (inactive)
- GI50 (SN12C): > 100 µM (inactive)
- GI50 (UACC-257): 51.4 µM (inactive)
- GI50 (SR): 39.4 µM (inactive)

Structure (SMILES): COc1cc(CCCOC2OC(COC3OCC(O)C(O)C3O)C(O)C(O)C2O)cc2cc(-c3ccc4c(c3)OCO4)oc12 (configuration not stated)
- GI50 (KM-20L2): > 175 µM (inactive)
- GI50 (NCI-H460): > 175 µM (inactive)
- GI50 (SK-OV-3): > 175 µM (inactive)
- GI50 (OVCAR-4): > 175 µM (inactive)
- GI50 (OVCAR-3): > 175 µM (inactive)
- GI50 (DMS-114): > 175 µM (inactive)
- GI50 (SNB-19): > 175 µM (inactive)
- GI50 (NCI-H226): > 175 µM (inactive)
- GI50 (SW-620): > 175 µM (inactive)
- GI50 (HL-60): > 175 µM (inactive)
- GI50 (SNB-78): > 175 µM (inactive)
- GI50 (SK-MEL-28): > 175 µM (inactive)
- GI50 (SF-539): > 175 µM (inactive)
- GI50 (M19-MEL): > 175 µM (inactive)
- GI50 (U-251): > 175 µM (inactive)
- GI50 (HCC 2998): > 98.4 µM (inactive)
- GI50 (XF498): > 175 µM (inactive)
- GI50 (HOP-92): > 175 µM (inactive)
- GI50 (Malme-3M): > 175 µM (inactive)
- GI50 (UACC-62): > 175 µM (inactive)
- GI50 (MCF7): > 175 µM (inactive)
- GI50 (DLD-1): > 175 µM (inactive)
- GI50 (DMS-273): > 175 µM (inactive)
- GI50 (SNB-75): > 175 µM (inactive)
- GI50 (HT-29): > 175 µM (inactive)
- GI50 (EKVX): > 175 µM (inactive)
- GI50 (A498): > 27.7 µM (inactive)
- GI50 (K562): > 175 µM (inactive)
- GI50 (SK-MEL-5): > 175 µM (inactive)
- GI50 (HCT-116): > 175 µM (inactive)
- GI50 (MOLT-4): > 175 µM (inactive)
- GI50 (SF-295): > 175 µM (inactive)
- GI50 (SF-268): > 175 µM (inactive)
- GI50 (NCI-H522): > 175 µM (inactive)
- GI50 (NCI/ADR-RES): > 175 µM (inactive)
- GI50 (NCI-H23): > 175 µM (inactive)
- GI50 (CAKI-1): > 175 µM (inactive)
- GI50 (RXF 393): > 94 µM (inactive)
- GI50 (IGROV-1): > 175 µM (inactive)
- GI50 (RPMI-8226): > 175 µM (inactive)
- GI50 (HCT-15): > 175 µM
- GI50 (CCRF-CEM): > 69.7 µM (inactive)
- GI50 (OVCAR-5): > 175 µM (inactive)
- GI50 (A549): > 175 µM (inactive)
- GI50 (OVCAR-8): 94.6 µM (inactive)
- GI50 (LOX IMVI): > 175 µM (inactive)
- GI50 (COLO 205): > 175 µM (inactive)
- GI50 (HOP-62): > 175 µM (inactive)
- GI50 (KM12): > 175 µM (inactive)
- GI50 (SK-MEL-2): > 175 µM (inactive)
- GI50 (UO-31): > 175 µM (inactive)
- GI50 (SN12C): 81.3 µM (inactive)
- GI50 (UACC-257): > 175 µM (inactive)

Structure (SMILES): OCC(O)C(OC1OC(CO)C(O)C(O)C1O)c1nn(-c2ccccc2)c2nc3cc(Cl)ccc3nc12 (configuration not stated)
- GI50 (M14): > 100 µM (inactive)
- GI50 (KM-20L2): > 100 µM (inactive)
- GI50 (NCI-H460): > 100 µM (inactive)
- GI50 (SK-OV-3): > 100 µM (inactive)
- GI50 (OVCAR-4): > 100 µM (inactive)
- GI50 (OVCAR-3): > 100 µM (inactive)
- GI50 (DMS-114): > 100 µM (inactive)
- GI50 (SNB-19): > 100 µM (inactive)
- GI50 (SNB-78): > 100 µM (inactive)
- GI50 (SK-MEL-28): > 100 µM (inactive)
- GI50 (SF-539): > 100 µM (inactive)
- GI50 (M19-MEL): > 100 µM (inactive)
- GI50 (U-251): > 100 µM (inactive)
- GI50 (786-0): > 100 µM (inactive)
- GI50 (HCC 2998): > 100 µM (inactive)
- GI50 (XF498): > 100 µM (inactive)
- GI50 (Malme-3M): > 100 µM (inactive)
- GI50 (UACC-62): > 100 µM (inactive)
- GI50 (DLD-1): > 100 µM (inactive)
- GI50 (SNB-75): > 100 µM (inactive)
- GI50 (HT-29): > 100 µM (inactive)
- GI50 (EKVX): > 100 µM (inactive)
- GI50 (A498): > 100 µM (inactive)
- GI50 (K562): > 100 µM (inactive)
- GI50 (HCT-116): > 100 µM (inactive)
- GI50 (MOLT-4): > 100 µM (inactive)
- GI50 (SF-295): > 100 µM (inactive)
- GI50 (SF-268): > 100 µM (inactive)
- GI50 (NCI-H522): > 100 µM (inactive)
- GI50 (ACHN): > 100 µM (inactive)
- GI50 (NCI-H23): > 100 µM (inactive)
- GI50 (RXF 393): > 100 µM (inactive)
- GI50 (RPMI-8226): > 100 µM (inactive)
- GI50 (HCT-15): > 100 µM
- GI50 (CCRF-CEM): > 100 µM (inactive)
- GI50 (OVCAR-5): > 100 µM (inactive)
- GI50 (TK-10): > 100 µM (inactive)
- GI50 (OVCAR-8): > 100 µM (inactive)
- GI50 (LOX IMVI): > 100 µM (inactive)
- GI50 (HOP-62): > 100 µM (inactive)
- GI50 (KM12): > 100 µM (inactive)
- GI50 (UO-31): > 100 µM (inactive)
- GI50 (LXFL 529): > 100 µM (inactive)
- GI50 (SN12C): > 100 µM (inactive)
- GI50 (UACC-257): > 100 µM (inactive)
- GI50 (SR): > 100 µM (inactive)
